{"source": "patent US11866438B2", "about": "“Compositions, uses and methods for making them” (Pimera, Inc., priority 2015, dated 2024)", "assay_type_in_all_cases": "cell-based", "key": {"SKM-1_1": {"tested_on": "SKM-1_1", "test": "Alamar Blue cell proliferation inhibition, SKM-1_1", "conditions": "Alamar Blue assay, 96 h incubation, Table 3; read-out: cell proliferation inhibition, Cell line SKM-1_1", "method": "(§1) Inhibitory activity on cell proliferation of representative compounds of the invention was determined using an Alamar Blue cell viability assay as described hereafter.\n(§2) 3000 cancer cells in 100 uL of cell culture media were plated in each well of a 96-well clear bottom, black wall cell culture-pretreated plate.\n(§3) The next day compounds are serially diluted (3-fold in cell culture media) across a 96-well polypropylene mother plate from row A to row F, to yield 6 concentrations (10 uM, 3.3 uM, 1.1 uM, 370 nM, 124 nM and 41 nM) for each test compound. Rows G and H contain only DMSO.\n(§4) Once titrations are made, the media in plates with cells were disposed and 100 μL of drug dilutions are transferred to plates with cells. After a ninety six-hour incubation at 37° C., 10 uL of resazurin solution from Alamar Blue Cell Viability kit (Invitrogen, Carlsbad, CA) was added to the media and cells were incubated at 37° C. for three more hours. At the end of this incubation the production of resofurin was measured using Spectrmax M2 microplate reader (Molecular Devices, Sunnyvale, CA)"}, "P12-ICHIKAWA": {"tested_on": "P12-ICHIKAWA", "test": "Alamar Blue cell proliferation inhibition, P12-ICHIKAWA", "conditions": "Homo sapiens, Alamar Blue assay, 96 h incubation, Table 3, read-out: cell proliferation inhibition, Cell line P12-ICHIKAWA", "method": "as §1, §2, §3, §4"}, "THP-1": {"tested_on": "THP-1", "test": "Alamar Blue cell proliferation inhibition, THP-1", "conditions": "Homo sapiens, Alamar Blue assay, 96 h incubation, Table 3, read-out: cell proliferation inhibition, Cell line THP-1", "method": "as §1, §2, §3, §4"}, "KG-1": {"tested_on": "KG-1", "test": "Alamar Blue cell proliferation inhibition, KG-1", "conditions": "Homo sapiens, Alamar Blue assay, 96 h incubation, Table 3, read-out: cell proliferation inhibition, Cell line KG-1", "method": "as §1, §2, §3, §4"}, "NB-4-1": {"tested_on": "NB-4-1", "test": "Alamar Blue cell proliferation inhibition, NB-4-1", "conditions": "Alamar Blue assay, 96 h incubation, Table 3; read-out: cell proliferation inhibition, Cell line NB-4-1", "method": "as §1, §2, §3, §4"}, "ML-2": {"tested_on": "ML-2", "test": "Alamar Blue cell proliferation inhibition, ML-2", "conditions": "Homo sapiens, Alamar Blue assay, 96 h incubation, Table 3, read-out: cell proliferation inhibition, Cell line ML-2", "method": "as §1, §2, §3, §4"}, "MBA-MB-231": {"tested_on": "MBA-MB-231", "test": "Alamar Blue cell proliferation inhibition, MBA-MB-231 (MM231)", "conditions": "Alamar Blue assay, 96 h incubation", "method": "as §1, §2, §3, §4"}, "SK-BR-3": {"tested_on": "SK-BR-3", "test": "Alamar Blue cell proliferation inhibition, SK-BR-3", "conditions": "Homo sapiens, Alamar Blue assay, 96 h incubation", "method": "as §1, §2, §3, §4"}, "[1]": {"conditions": "Table 2, read-out: cell proliferation inhibition, Cell Line MBA-MB-231"}, "[2]": {"conditions": "Table 2, read-out: cell proliferation inhibition, Cell Line SK-BR-3"}, "[3]": {"conditions": "Table 3, read-out: cell proliferation inhibition, Cell line MM231"}, "[4]": {"conditions": "Table 3, read-out: cell proliferation inhibition, Cell line SK-BR-3"}}, "note": "pIC50: −log10 of the molar value. Like-named read-outs stand apart in the source and are kept apart here."}
{"compound": "CN(C)CCNc1nc2cccnc2n2c1nc1ccccc12", "note": "[Compound 5]", "values": [{"measurement": "pIC50", "setting": "SKM-1_1", "result": "5.30 to 6.00"}, {"measurement": "pIC50", "setting": "P12-ICHIKAWA", "result": "5.30 to 6.00"}, {"measurement": "pIC50", "setting": "THP-1", "result": "5.30 to 6.00"}, {"measurement": "pIC50", "setting": "KG-1", "result": "5.30 to 6.00"}, {"measurement": "pIC50", "setting": "NB-4-1", "result": "5.30 to 6.00"}, {"measurement": "pIC50", "setting": "ML-2", "result": "5.30 to 6.00"}]}
{"compound": "Cc1ccc2nc(NCCN3CCCC3)c3nc4ccccc4n3c2n1", "note": "[Compound 12]", "values": [{"measurement": "pIC50", "setting": "MBA-MB-231; [1]", "result": "5.30 to 6.00"}, {"measurement": "pIC50", "setting": "SK-BR-3; [2]", "result": "5.30 to 6.00"}]}
{"compound": "Cc1ccc2nc(NCCN(C)C)c3nc4ccccc4n3c2n1", "note": "[Compound 13]", "values": [{"measurement": "pIC50", "setting": "MBA-MB-231; [1]", "result": "5.30 to 6.00"}, {"measurement": "pIC50", "setting": "SK-BR-3; [2]", "result": "5.30 to 6.00"}]}
{"compound": "Cc1ccc2nc(N3C[C@@H](C)N[C@@H](C)C3)c3nc4ccccc4n3c2n1", "note": "[Compound 14]", "values": [{"measurement": "pIC50", "setting": "MBA-MB-231; [1]", "result": "5.30 to 6.00"}, {"measurement": "pIC50", "setting": "SK-BR-3; [2]", "result": "5.30 to 6.00"}]}
{"compound": "Cc1ccc2nc(N3CCCN(C)CC3)c3nc4ccccc4n3c2n1", "note": "[Compound 15]", "values": [{"measurement": "pIC50", "setting": "MBA-MB-231; [1]", "result": "5.30 to 6.00"}, {"measurement": "pIC50", "setting": "SK-BR-3; [2]", "result": "5.30 to 6.00"}]}
{"compound": "Clc1cnc2c(c1)nc(NCCN1CCCC1)c1nc3ccccc3n12", "note": "[Compound 19]", "values": [{"measurement": "pIC50", "setting": "MBA-MB-231; [1]", "result": "5.30 to 6.00"}, {"measurement": "pIC50", "setting": "SK-BR-3; [2]", "result": "5.30 to 6.00"}]}
{"compound": "CN(C)CCNc1nc2cc(Cl)cnc2n2c1nc1ccccc12", "note": "[Compound 20]", "values": [{"measurement": "pIC50", "setting": "MBA-MB-231; [1]", "result": "5.30 to 6.00"}, {"measurement": "pIC50", "setting": "SK-BR-3; [2]", "result": "5.30 to 6.00"}]}
{"compound": "C[C@@H]1CN(c2nc3cc(Cl)cnc3n3c2nc2ccccc23)C[C@H](C)N1", "note": "[Compound 21]", "values": [{"measurement": "pIC50", "setting": "MBA-MB-231; [1]", "result": "< 5.00"}, {"measurement": "pIC50", "setting": "SK-BR-3; [2]", "result": "< 5.00"}]}
{"compound": "CN1CCCN(c2nc3cc(Cl)cnc3n3c2nc2ccccc23)CC1", "note": "[Compound 22]", "values": [{"measurement": "pIC50", "setting": "MBA-MB-231; [1]", "result": "5.00 to 5.30"}, {"measurement": "pIC50", "setting": "SK-BR-3; [2]", "result": "5.30 to 6.00"}]}
{"compound": "c1ccc2c(c1)nc1c(NCCN3CCCC3)nc3cncnc3n12", "note": "[Compound 26]", "values": [{"measurement": "pIC50", "setting": "MBA-MB-231; [1]", "result": "5.30 to 6.00"}, {"measurement": "pIC50", "setting": "SK-BR-3; [2]", "result": "5.30 to 6.00"}]}
{"compound": "CN(C)CCNc1nc2cncnc2n2c1nc1ccccc12", "note": "[Compound 27]", "values": [{"measurement": "pIC50", "setting": "MBA-MB-231; [1]", "result": "5.30 to 6.00"}, {"measurement": "pIC50", "setting": "SK-BR-3; [2]", "result": "5.30 to 6.00"}]}
{"compound": "C[C@@H]1CN(c2nc3cncnc3n3c2nc2ccccc23)C[C@H](C)N1", "note": "[Compound 28]", "values": [{"measurement": "pIC50", "setting": "MBA-MB-231; [1]", "result": "5.30 to 6.00"}, {"measurement": "pIC50", "setting": "SK-BR-3; [2]", "result": "5.30 to 6.00"}]}
{"compound": "CN1CCCN(c2nc3cncnc3n3c2nc2ccccc23)CC1", "note": "[Compound 29]", "values": [{"measurement": "pIC50", "setting": "MBA-MB-231; [1]", "result": "5.30 to 6.00"}, {"measurement": "pIC50", "setting": "SK-BR-3; [2]", "result": "5.30 to 6.00"}]}
{"compound": "CN(C)CCNc1nc2nccnc2n2c1nc1ccccc12", "note": "[Compound 34]", "values": [{"measurement": "pIC50", "setting": "MBA-MB-231; [1]", "result": "5.30 to 6.00"}, {"measurement": "pIC50", "setting": "SK-BR-3; [2]", "result": "5.30 to 6.00"}]}
{"compound": "C[C@@H]1CN(c2nc3nccnc3n3c2nc2ccccc23)C[C@H](C)N1", "note": "[Compound 35]", "values": [{"measurement": "pIC50", "setting": "MBA-MB-231; [1]", "result": "5.30 to 6.00"}, {"measurement": "pIC50", "setting": "SK-BR-3; [2]", "result": "5.30 to 6.00"}]}
{"compound": "CN1CCCN(c2nc3nccnc3n3c2nc2ccccc23)CC1", "note": "[Compound 36]", "values": [{"measurement": "pIC50", "setting": "MBA-MB-231; [1]", "result": "5.30 to 6.00"}, {"measurement": "pIC50", "setting": "SK-BR-3; [2]", "result": "5.30 to 6.00"}]}
{"compound": "O=c1[nH]c2ccc(NCCN3CCCC3)nc2n2c1nc1ccccc12", "note": "[Compound 39]", "values": [{"measurement": "pIC50", "setting": "MBA-MB-231; [3]", "result": "5.30 to 6.00"}, {"measurement": "pIC50", "setting": "SK-BR-3; [4]", "result": "5.30 to 6.00"}]}
{"compound": "CN1CCCN(c2ccc3[nH]c(=O)c4nc5ccccc5n4c3n2)CC1", "note": "[Compound 41, 2-(4-Methyl-[1,4]diazepan-1-yl)-5H-1,5,7,11b-tetraaza-benzo[c]fluoren-6-one]", "values": [{"measurement": "pIC50", "setting": "SK-BR-3; [4]", "result": "> 6.00"}]}
{"compound": "CN(C)CCNC(=O)c1cc2cc3ccccc3nc2n2ccnc12", "note": "[Compound 52]", "values": [{"measurement": "pIC50", "setting": "SKM-1_1", "result": "> 6.00"}, {"measurement": "pIC50", "setting": "P12-ICHIKAWA", "result": "5.30 to 6.00"}, {"measurement": "pIC50", "setting": "THP-1", "result": "5.30 to 6.00"}, {"measurement": "pIC50", "setting": "KG-1", "result": "5.30 to 6.00"}, {"measurement": "pIC50", "setting": "NB-4-1", "result": "5.30 to 6.00"}, {"measurement": "pIC50", "setting": "ML-2", "result": "5.30 to 6.00"}]}
{"compound": "CN1CCCN(C(=O)c2cc3cc4ccccc4nc3n3ccnc23)CC1", "note": "[Compound 55]", "values": [{"measurement": "pIC50", "setting": "MBA-MB-231; [3]", "result": "< 5.00"}, {"measurement": "pIC50", "setting": "SK-BR-3; [4]", "result": "< 5.00"}]}
{"compound": "COc1ccc2nc3c(cc(C(=O)N4CCCN(C)CC4)c4nccn43)cc2c1", "note": "[Compound 56]", "values": [{"measurement": "pIC50", "setting": "MBA-MB-231; [1]", "result": "< 5.00"}, {"measurement": "pIC50", "setting": "SK-BR-3; [2]", "result": "< 5.00"}]}
{"compound": "COc1ccc2nc3c(cc(C(=O)NCCN(C)C)c4nccn43)cc2c1", "note": "[Compound 57]", "values": [{"measurement": "pIC50", "setting": "MBA-MB-231; [1]", "result": "5.30 to 6.00"}, {"measurement": "pIC50", "setting": "SK-BR-3; [2]", "result": "5.30 to 6.00"}]}
{"compound": "CN1CCCN(C(=O)c2cc3cc4cc(Cl)ccc4nc3n3ccnc23)CC1", "note": "[Compound 60]", "values": [{"measurement": "pIC50", "setting": "MBA-MB-231; [1]", "result": "< 5.00"}, {"measurement": "pIC50", "setting": "SK-BR-3; [2]", "result": "< 5.00"}]}
{"compound": "CN(C)CCNC(=O)c1cc2cc3cc(Cl)ccc3nc2n2ccnc12", "note": "[Compound 61]", "values": [{"measurement": "pIC50", "setting": "MBA-MB-231; [1]", "result": "< 5.00"}, {"measurement": "pIC50", "setting": "SK-BR-3; [2]", "result": "< 5.00"}]}
{"compound": "O=C(NCCN1CCCC1)c1cc2cc3cc(Cl)ccc3nc2n2ccnc12", "note": "[Compound 62]", "values": [{"measurement": "pIC50", "setting": "MBA-MB-231; [1]", "result": "< 5.00"}, {"measurement": "pIC50", "setting": "SK-BR-3; [2]", "result": "< 5.00"}]}
{"compound": "C[C@@H]1CN(C(=O)c2cc3cc4cc(Cl)ccc4nc3n3ccnc23)C[C@H](C)N1", "note": "[Compound 63]", "values": [{"measurement": "pIC50", "setting": "MBA-MB-231; [1]", "result": "< 5.00"}, {"measurement": "pIC50", "setting": "SK-BR-3; [2]", "result": "< 5.00"}]}
